39 molecules from ChEMBL document CHEMBL3507680, “University of Dundee, Gates Library screen for HepG2 cell viability” can be followed below.

The series can be described thus: Human HepG2 cell viability assay in 384 well format. It is filed as toxicity, cell-based. On the set-up: dose 125 nL, time 70.5 hour; concentration not given beside the values. The note with it: HepG2 cells, read-out: Inhibition.
On to `O=C(O)c1cc(-c2ccncc2)cc(S(=O)(=O)N2CCCCCC2)c1`, for which the cytotoxicity at 70.5 h was -18.9%.
In the case of `CCc1cnc(NCCCN2CCC(O)CC2)nc1`, the cytotoxicity at 70.5 h is -1.08%.
As for `Cc1nc(-c2ncc(C(=O)NCCNc3ncccc3C)c(O)n2)cs1`, the figure is -2.82%.
The figure for `CC(CN1CCC(c2ccccc2)CC1)n1cnc2ccccc21` (centres undefined) is -18.3%; for `Cc1nn(C)c(C)c1CN(C(=O)c1cnc(O)cn1)C(C)C` it is -2.89%; for `CNC(=O)[C@@H]1C[C@H](N)CN1S(=O)(=O)c1cc(Cl)cc(Cl)c1O` it is -6.21%.
On to `c1csc(CN2CCCN(c3ncnc4[nH]ccc34)CC2)c1`, for which the cytotoxicity at 70.5 h is -13.6%.
As for `O=C(O)[C@@H]1CN(Cc2nc3ncccn3n2)C[C@H]1c1cccc(F)c1`, the figure is 26.1%; as for `COc1ccccc1OCc1cc(C(=O)NC[C@@H]2CCCN2)n[nH]1`, -1.83%; as for `CCc1nnc(N2C[C@@H](NC(C)=O)[C@H](c3ccc(C)o3)C2)s1`, 2.74%.
On to `OC1(CNCCSCc2ccccc2)CCCNC1` (centres undefined), for which the cytotoxicity at 70.5 h stood at 18.4%.
As to `CC(C)=CCN1C[C@@H]2CN(C(=O)c3cnccc3C)C[C@]2(C(=O)O)C1`, the cytotoxicity at 70.5 h is -7.13%.
`CN(C)CCCC(=O)NC1CC(C)(C)Cc2nc(C(C)(C)C)ncc21` (centres undefined): the cytotoxicity at 70.5 h is -17.7%.
On to `COc1ccc2c(c1OC)Cc1c-2nc(N)c(C#N)c1C1CCOC1` (centres undefined), for which the cytotoxicity at 70.5 h is -19.2%.
As for `CCOCC(=O)N1CCc2c(ncnc2N2CCOCC2)C1`, the cytotoxicity at 70.5 h was -3.63%.
As for `CC(C)c1nccc(-c2nccn2CCS(C)(=O)=O)n1`, the cytotoxicity at 70.5 h is -16.1%.
The figure for `CC(C)C[C@H](NC(=O)c1cc(-c2cccn2C)n[nH]1)C(N)=O` is -0.791%.
The figure for `COCCNc1nc2c(c(NCCc3cccs3)n1)CCNCC2` is -2.67%; for `Fc1ccccc1CC1CCN(Cc2nccs2)CC1` it is -3.29%.
For the molecule `C[C@@H]1CN(C(=O)C2(Cn3cccn3)CC2)CC[C@@]1(O)C1CCOCC1`, the cytotoxicity at 70.5 h was -0.0584%.
Turning to `CCc1cnc(N2CCCC(CCC(N)=O)C2)nc1` (centres undefined), the cytotoxicity at 70.5 h stood at 17.3%.
As for `O[C@@H]1CN(c2noc(C3CC3)n2)CC[C@H]1c1ccc2ccccc2c1`, the cytotoxicity at 70.5 h is 17.6%.
As to `CN1CCc2[nH]cnc2C12CCN(Cc1ccc3nsnc3c1)CC2`, the cytotoxicity at 70.5 h was found to be 0.284%.
Regarding `CNc1nc(C)c(C(=O)N2C[C@@H](C(=O)O)[C@H](C3CC3)C2)s1`, the cytotoxicity at 70.5 h was -6.65%.
Take `CN1CCC(C2CCN(Cc3cccc(-n4cccn4)c3)CC2)C1` (centres undefined): the cytotoxicity at 70.5 h came to 2.02%.
As for `CC(c1ccc(C(=O)NCCc2nc(N)cc(O)n2)o1)N1CCCCC1` (centres undefined), the figure is -3.9%.
Take `CN(Cc1cc2n(n1)CCNC2)Cc1cc(-c2ccccn2)no1`: the cytotoxicity at 70.5 h was -5.4%.
As for `O=C(Cc1ccc(F)cc1Cl)N1C[C@@H](CN2CCC(O)CC2)[C@@H](CO)C1`, the cytotoxicity at 70.5 h was -3.43%.
As for `COCc1nc(Cn2c(C)cc(C(F)(F)F)cc2=O)no1`, the cytotoxicity at 70.5 h came out at 23.9%.
The figure for `Cc1nn(C)c(C)c1-c1ccnc(N(C)Cc2noc(C(C)C)n2)n1` is 7.17%; for `CCC(C)N(Cc1cccnc1)Cc1ccccc1Cn1cccn1` (centres undefined) it is -9.31%.
With `CC(C)Cc1cc(C(=O)NC(C)(CO)CO)n(C)n1`, the cytotoxicity at 70.5 h was -16.8%.
For the molecule `Cc1nnc(CN(C)Cc2ccc(C(=O)Nc3sccc3C#N)cc2)o1`, the cytotoxicity at 70.5 h amounted to 0.967%.
The figure for `CC(=O)NCCNc1cc(C)nc2cc(C)nn12` is 0.136%; for `Cc1nc(CN2CC(Cc3ccccc3)CC2=O)no1` (centres undefined) it is -17.4%; for `CCn1cnnc1C1CCN(C(=O)c2ccccc2F)CC1` it is -7.26%.
Take `CC(C)c1nccn1C1CCCN(C(=O)c2ccc3nncn3c2)C1` (centres undefined): the cytotoxicity at 70.5 h is 13%.
As to `CCn1cnnc1C1CCN(C(=O)c2cc(F)ccc2OC)CC1`, the cytotoxicity at 70.5 h was -10.6%.
As for `CCn1cnnc1C1CCN(C(=O)c2cc(C)n(CC)c2C)CC1`, the cytotoxicity at 70.5 h is -5.03%.
